Experiments:
suppressed cancer cells = assay: Library screen and dose-response, cells on normal matrix vs cells on plastic; type: cell-based; conditions: FIGS. 3A, 3B, 6A-6C
Description: Screening of compounds. The National Cancer Institute Developmental Therapeutics Program (NCI DTP) diversity set of 1990 compounds1 was obtained by material transfer agreement and was diluted to a final concentration of 166.7 μM in serum-containing media and placed onto cells for 72 hours at 37° C. and 5% CO2. A marker of cell proliferation using the substrate 5-carboxyfluorescein diacetate acetoxymethyl ester (CFDA-AM) cleaved to fluorescein by non-specific cellular esterases was used. Briefly, media containing a final concentration of 5 μM CFDA-AM (Molecular Probes, Eugene, Oreg.) was added in PBS for two h at 37° C. Plates were then read by a FLUOstar Optima plate reader (BMG LABTECH, Durham, N.C.) using 385 nm excitation, 428 nm emission filter.
(§1) Dose-response relations of lead compounds. To 100 μl media on cells was added 100 μl of a 2× (666.7 μM) stock of either doxorubicin, tetrandrine or o-cresolphthalein in completed media in a single column in a 96-well plate. 1:3 dilutions were made from this highest dose by removing 66.7 μl into the next column of cells containing 133 μl media. Cells were incubated with drug for 72 hours, then the CFDA-AM assay completed as described above.
(§2) Drug screening. The percent inhibition of cell proliferation (as determined by CFDA-AM cleavage) as compared to untreated cells was calculated for each drug in the wells of plates. The ratio of percent inhibition of the same drug of cells grown on SISgel as compared to non-confluent monolayers also was calculated. All library compounds were screened twice for consistency.
(§3) Dose-response relations. Data were graphed as percent inhibition of proliferation as compared to untreated cells and from this EC50 values calculated using sigmoidal dose-response non-linear regression analysis (GraphPad Prism 4.0 software, San Diego, Calif.). Dose-response relation data were compared to one another using two-way ANOVA with Bonferroni post-test (GraphPad Prism 4.0 software, San Diego, Calif.).
SISgel (90 μl) is added to wells of a 96-well plate and allowed to gel. Cancer cells in 50 μl of nutrient (such as, for example, J82 bladder cancer cell, RT4 cancer cells, TCCSUP cancer cells, 5637 cancer cells, MDA-MB-468 breast cancer cells, or B16-F10 skin tumor (or any metastatic murine melanoma)) are added to each well and allowed to attach and grow. After 24 hours, the test compounds are added to wells at 10 μM concentration. The cells are allowed to grow in the presence of the test compound for 24 hours, at which time the number of cells (or survival or mortality) are estimated by a fluorometric method. In one embodiment, the fluorometric method is an assay performed using an esterase substrate, 5-carboxyfluorescein diacetate acetoxymethyl ester (CFDA) (available from Molecular Probes, Eugene, Oreg., USA), however, any suitable assay for measuring cell survival or mortality known by those of ordinary skill in the art may be used. Examples of fluorometers which can be used include, but are not limited to, FLUOStar Optima plate reader (BMG Biotech), FL600 fluorescent plate reader (Bio-Tek Instruments), Victor2 plate reader (Wallac), FluoroCount BF10000 fluorescent microplate reader (Packard), CytoFluor® 4000 (Applied Biosystems), Bio-Tek Synergy, BMG FLUOstar Galaxy and OPTIMA, PerkinElmer Victor™, PerkinElmer HTS 7000, TECAN SpectraFluor Plus, Thermo LabSystems Fluoroskan Ascent, and the like.
The cell number results are compared to those observed in cells grown conventionally on plastic in nearly confluent monolayers that show approximately the same growth rate as the cells on SISgel. […] In other embodiments, the ratio used may be, for example, less than two fold or greater than two fold as long as the cell number or survival on non-suppressing cell support matrix is greater than the number of cells on the suppressing cell support matrix. Preferably, each positive result is then confirmed by a full dose-response curve. […]

MDA-MB-468 cells = assay: Complete dose response, cells in SISgel vs monolayers or Matrigel; type: cell-based; conditions: FIGS. 8A-8B
Description: as §1, §3
(§4) SISgel (90 μl) is added to wells of a 96-well plate and allowed to gel. […] Examples of fluorometers which can be used include, but are not limited to, FLUOStar Optima plate reader (BMG Biotech), FL600 fluorescent plate reader (Bio-Tek Instruments), Victor2 plate reader (Wallac), FluoroCount BF10000 fluorescent microplate reader (Packard), CytoFluor® 4000 (Applied Biosystems), Bio-Tek Synergy, BMG FLUOstar Galaxy and OPTIMA, PerkinElmer Victor™, PerkinElmer HTS 7000, TECAN SpectraFluor Plus, Thermo LabSystems Fluoroskan Ascent, and the like. […]

B16-F10 cells = assay: as above; type: cell-based, murine; conditions: FIGS. 9A-9B
Description: as §1, §3, §4

[1] = test system: J82 metastatic bladder cancer cells; assay: In vivo flank xenograft, GFP-tagged cells co-injected with suppressive SISgel; conditions: nude mice, 35 mg/kg Monday, Wednesday and Friday from day 8
Description: Flank xenograft model. J82 cells stably expressing green fluorescent protein (GFP) were prepared as follows. pLEGFP-C1 retrovirus (Clontech, Mountain View, Calif.) was co-transfected with the pVSV-G vector (Clontech, Mountain View, Calif.) which contains a viral envelope gene into the packaging cell line GP2-293 (Clontech, Mountain View, Calif.). Supernatant from the packaging cells containing the infective virus was collected every 24 hours for 4 days. Fluorescent target cells were made by infecting J82s, a urothelial transitional cell carcinoma cell line (ATCC, Manassas, Va.), with 1 ml of fresh, virus containing, supernatant/well containing 100,000 target cells along with 8 μg/ml of polybrene (Sigma Aldrich, St. Louis, Mo.). Each application of viral supernatant was filtered through a 0.4 μM syringe filter before application to target cells. Supernatant was removed and fresh virus containing media replenished on target cells every 24 hours until 4 changes of media were completed. […]
(§5) In sterile 500 μl centrifuge tubes, placed on ice, 100 μl of cell suspension was mixed with either 100 μl ice-cold prepared SISgel or ice-cold Matrigel and mixed well. […] The area and intensity of the tumor was measured using Adobe Photoshop by first selecting the tumor area, then counting pixels above a threshold selected to eliminate background, non-tumor areas. The integrated intensity was calculated by multiplying the average intensity of detected pixels by the number of pixels detected.
(§6) In this experiment, the activities of three compounds identified by the in vitro screening method were compared against both ECM-suppressed (SISgel, right) and actively growing (Matrigel, left) J82 metastatic bladder cancer cells. […] When tumors were first visible fluorescently (8 days after implantation), 35 mg/kg Bordeaux Red, tetrabromofluorescein, or Wool Violet 2R were injected Monday, Wednesday and Friday and tumor size was measured using fluorescence microscopy. A representative time course of fluorescence imaging is shown from a single animal for each treatment group. […]

[2] = test system: J82 metastatic bladder cancer cells; assay: In vivo flank xenograft, GFP-tagged cells co-injected with permissive Matrigel; conditions: nude mice; for activity against actively growing cells in vivo (fluorescence imaging): 35 mg/kg Monday, Wednesday and Friday from day 8
Description: Flank xenograft model. J82 cells stably expressing green fluorescent protein (GFP) were prepared as follows. pLEGFP-C1 retrovirus (Clontech, Mountain View, Calif.) was co-transfected with the pVSV-G vector (Clontech, Mountain View, Calif.) which contains a viral envelope gene into the packaging cell line GP2-293 (Clontech, Mountain View, Calif.). Supernatant from the packaging cells containing the infective virus was collected every 24 hours for 4 days. Fluorescent target cells were made by infecting J82s, a urothelial transitional cell carcinoma cell line (ATCC, Manassas, Va.), with 1 ml of fresh, virus containing, supernatant/well containing 100,000 target cells along with 8 μg/ml of polybrene (Sigma Aldrich, St. Louis, Mo.). Each application of viral supernatant was filtered through a 0.4 μM syringe filter before application to target cells. Supernatant was removed and fresh virus containing media replenished on target cells every 24 hours until 4 changes of media were completed. Virus containing media was replaced with Minimum Essential Media, MEM, (Life Technologies, Carlsbad, Calif.) containing 1% nonessential amino acids, 1% L-glutamine, 1% sodium pyruvate and 10% Fetal Calf Serum, and cells were allowed to grow to 90% confluence. Stable transfects were selected through sequential sorting and enrichment of fluorescent cells using flow cytometry.
as §5, with “well. The mix was immediately injected into either the right or left flank of a 5-week old nude mouse, nu/nu-nuBR, (Charles River Laboratories, Wilmington, Mass.). Caliper measurements of tumor size were taken every week for the length of the study as were fluorescent images.” for “well.”
as §6

J82 cells = assay: Cell proliferation dose-response (CFDA-AM), cells on SISgel vs non-confluent monolayers; type: cell-based
Description: Plating of cells for screening. Three-dimensional gel cultures with Matrigel were made by layering 50 μl of ice cold Matrigel into wells of a Costar 3610 white, clear bottom 96-well plates (Corning, Corning, N.Y.) allowed to gel at 37° C. Confluent cells were trypsinized with 1 ml 0.25% trypsin −1 mM EDTA, and 30,000 were added to wells containing the gelled matrices. The cells were fed with 50 μl of their respective media containing 10% fetal calf serum. To establish non-confluent monolayers, cells were plated at a cell density of 10,000/well 24 hours prior to drug treatments.
Screening of compounds. […] Plates were then read by a FLUOstar Optima plate reader (BMG LABTECH, Durham, N.C.) using 385 nm excitation, 428 nm emission filter. […]
as §2, with “All library compounds were screened twice for consistency.” left out
Dose-response relations. Data were graphed as percent inhibition of proliferation as compared to untreated cells and from this EC50 values calculated using sigmoidal dose-response non-linear regression analysis (GraphPad Prism 4.0 software, San Diego, Calif.). […]

Molecule | sensitivity of cells on normal matrix compared with cells grown on plastic (suppressed cancer cells) | EC50 of cells grown in SISgel compared with monolayers or Matrigel (MDA-MB-468 cells) | EC50 of cells grown in SISgel compared with monolayers or Matrigel (B16-F10 cells) | effect on ECM-suppressed cells in vivo (fluorescence imaging) [1] | rate of tumor growth in Matrigel treated animals compared with controls ([2]; 35 mg/kg) | activity against actively growing cells in vivo (fluorescence imaging) [2] | activity against cancer cells under suppressing conditions compared with non-suppressing cell culture (dose-response, FIG. 2) (J82 cells)
O=C1OC2(c3ccc(O)cc3Oc3cc(O)ccc32)c2c(Br)c(Br)c(Br)c(Br)c21 [3,4,5,6-tetrabromofluorescein] | several fold increased sensitivity | lower EC50 values | lower EC50 values | caused disappearance of the cells | weak inhibition of tumor growth | none of the three compounds had any activity | –
O=S(=O)([O-])c1ccc2c(N=Nc3cccc4ccccc34)c(O)c(S(=O)(=O)[O-])cc2c1.[Na+].[Na+] [Bordeaux Red] | several fold increased sensitivity | lower EC50 values | lower EC50 values | caused disappearance of the cells | – | none of the three compounds had any activity | –
CC(C)=CCC(OC(=O)C=C(C)C)C1=CC(=O)c2c(O)ccc(O)c2C1=O (stereo not drawn) [NSC140377] | several fold increased sensitivity | – | – | – | – | – | –
Cc1cc(C)c(NC(=O)/C=C/c2ccccc2)c(C)c1 [NSC 191384] | several fold increased sensitivity | – | – | – | – | – | more active against cancer cells grown under the suppressing conditions
CC1=C(N2CC2)C(=O)C(CO)=C(N2CC2)C1=O [NSC 697726] | several fold increased sensitivity | – | – | – | – | – | –
Wool Violet 2R | several fold increased sensitivity | – | – | caused disappearance of the cells | – | none of the three compounds had any activity | –
